# In PubChem BioAssay (NCI):
#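 These data come from cells grown in 96-well plates and exposed to compound for 48 hours at five concentrations. TGI marks complete inhibition of growth.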
# Assays:
# Assay in all cases: DTP human tumour cell line panel, 48 h
# [1] = test system: KM20L2 colon
# [2] = test system: MALME-3M melanoma
# [3] = test system: NCI-H23 lung
# [4] = test system: IGROV1 ovarian
# [5] = test system: RPMI-8226 leukemia
# [6] = test system: A498 renal
# [7] = test system: HL-60(TB) leukemia
# [8] = test system: M19-MEL melanoma
# [9] = test system: UACC-257 melanoma
# [10] = test system: M14 melanoma
# [11] = test system: UO-31 renal
# [12] = test system: OVCAR-3 ovarian
# [13] = test system: OVCAR-4 ovarian
# [14] = test system: SF-539 CNS
# [15] = test system: CCRF-CEM leukemia
# [16] = test system: OVCAR-5 ovarian
# [17] = test system: UACC-62 melanoma
# [18] = test system: SK-MEL-28 melanoma
# [19] = test system: HCC-2998 colon
# [20] = test system: SNB-78 CNS
# [21] = test system: COLO 205 colon
# [22] = test system: SF-268 CNS
# [23] = test system: NCI-H460 lung
# [24] = test system: ACHN renal
# [25] = test system: SR leukemia
# [26] = test system: NCI-H522 lung
# [27] = test system: U251 CNS
# [28] = test system: K-562 leukemia
# [29] = test system: SNB-75 CNS
# [30] = test system: MOLT-4 leukemia
# [31] = test system: LXFL 529 NSCLC
# [32] = test system: HT29 colon
# [33] = test system: HOP-92 NSCLC
# [34] = test system: SK-OV-3 ovarian
# [35] = test system: SF-295 CNS
# [36] = test system: KM12 colon
# [37] = test system: DMS 114 small cell lung
# [38] = test system: SK-MEL-2 melanoma
# [39] = test system: HOP-62 NSCLC
# [40] = test system: DMS 273 small cell lung
# [41] = test system: HCT-116 colon
# [42] = test system: EKVX NSCLC
# [43] = test system: A549 NSCLC
# [44] = test system: XF 498 CNS
# [45] = test system: SN12C renal
# [46] = test system: NCI-H226 lung
# [47] = test system: TK-10 renal
# [48] = test system: HCT-15 colon
# [49] = test system: SNB-19 CNS
# [50] = test system: OVCAR-8 ovarian
# [51] = test system: RXF 393 renal
# [52] = test system: LOX IMVI melanoma
# [53] = test system: HOP-18 NSCLC
# [54] = test system: SW-620 colon
# [55] = test system: SK-MEL-5 melanoma
# [56] = test system: DLD-1 colon
# [57] = test system: 786-0 renal
smiles,measurement,setting,value
CCN(CC)CCCC(C)Nc1cc(-c2ccccc2)nc2cc(OC)ccc12 (configuration not stated),TGI,[1],7.89 µM
same,TGI,[2],22.4 µM
same,TGI,[3],32.1 µM
same,TGI,[4],41.9 µM
same,TGI,[5],5.77 µM
same,TGI,[6],14 µM
same,TGI,[7],7.04 µM
same,TGI,[8],27.5 µM
same,TGI,[9],35.6 µM
same,TGI,[10],3.52 µM
same,TGI,[11],9.22 µM
same,TGI,[12],34.5 µM
same,TGI,[13],18.7 µM
same,TGI,[14],17.7 µM
same,TGI,[15],11.4 µM
same,TGI,[16],7.97 µM
same,TGI,[17],36.6 µM
same,TGI,[18],20.5 µM
same,TGI,[19],2.41 µM
same,TGI,[20],18 µM
same,TGI,[21],13.4 µM
same,TGI,[22],32.9 µM
same,TGI,[23],14.7 µM
same,TGI,[24],29.8 µM
same,TGI,[25],12.1 µM
same,TGI,[26],19.9 µM
same,TGI,[27],15.8 µM
same,TGI,[28],5.7 µM
same,TGI,[29],25.9 µM
same,TGI,[30],8.24 µM
same,TGI,[31],19.9 µM
same,TGI,[32],4.83 µM
same,TGI,[33],11.1 µM
same,TGI,[34],37.5 µM
same,TGI,[35],21.1 µM
same,TGI,[36],22.3 µM
same,TGI,[37],21.8 µM
same,TGI,[38],26.3 µM
same,TGI,[39],19.4 µM
CCCCCCCCCCCCCC(=O)NCC(OCC)OCC,TGI,[1],> 100 µM
same,TGI,[2],> 100 µM
same,TGI,[40],> 100 µM
same,TGI,[3],> 100 µM
same,TGI,[4],> 100 µM
same,TGI,[6],> 100 µM
same,TGI,[7],> 100 µM
same,TGI,[8],> 100 µM
same,TGI,[9],> 100 µM
same,TGI,[10],> 100 µM
same,TGI,[11],> 100 µM
same,TGI,[41],> 100 µM
same,TGI,[42],> 100 µM
same,TGI,[43],> 100 µM
same,TGI,[12],> 100 µM
same,TGI,[13],> 100 µM
same,TGI,[44],> 100 µM
same,TGI,[14],> 100 µM
same,TGI,[15],> 100 µM
same,TGI,[45],> 100 µM
same,TGI,[46],> 100 µM
same,TGI,[16],> 100 µM
same,TGI,[47],> 100 µM
same,TGI,[17],> 100 µM
same,TGI,[18],> 100 µM
same,TGI,[48],> 100 µM
same,TGI,[49],> 100 µM
same,TGI,[19],> 100 µM
same,TGI,[20],> 100 µM
same,TGI,[50],> 100 µM
same,TGI,[21],> 100 µM
same,TGI,[51],> 100 µM
same,TGI,[22],> 100 µM
same,TGI,[23],> 100 µM
same,TGI,[24],> 100 µM
same,TGI,[52],> 100 µM
same,TGI,[53],> 100 µM
same,TGI,[54],> 100 µM
same,TGI,[26],> 100 µM
same,TGI,[27],> 100 µM
same,TGI,[29],> 100 µM
same,TGI,[31],> 100 µM
same,TGI,[32],> 100 µM
same,TGI,[33],> 100 µM
same,TGI,[34],> 100 µM
same,TGI,[35],> 100 µM
same,TGI,[36],> 100 µM
same,TGI,[55],> 100 µM
same,TGI,[56],> 100 µM
same,TGI,[37],> 100 µM
same,TGI,[57],> 100 µM
same,TGI,[38],> 100 µM
same,TGI,[39],> 100 µM
